Laboratory results as given in patent publication US20070232625A1, “Fungicidal Mixtures” (priority 2004, published 2007).

Test system: Alternaria solani
Test: Activity against early blight of tomato caused by Alternaria solani (protective spray test on potted tomato plants)
Type: in vivo
Conditions: tomato cultivar Golden Princess, evaluated after 5 days
Experimental: The active compounds, separately or jointly, were prepared as a stock solution comprising 0.25% by weight of active compound in acetone or DMSO. 1% by weight of the emulsifier Uniperol® EL (wetting agent having emulsifying and dispersant action based on ethoxylated alkylphenols) was added to this solution, and the mixture was diluted with water to the desired concentration.
Leaves of potted plants of the cultivar “Golden Princess” were sprayed to runoff point with an aqueous suspension having the concentration of active compound stated below. The next day, the leaves were infected with an aqueous spore suspension of Alternaria solani in a 2% strength biomalt solution having a density of 0.17×10^6 spores/ml. The plants were then placed in a water-vapor-saturated chamber at temperatures between 20 and 22° C. After 5 days, the disease on the untreated but infected control plants had developed to such an extent that the infection could be determined visually in %.
The visually determined percentages of infected leaf areas were converted into efficacies in % of the untreated control:
The efficacy (E) is calculated as follows using Abbot's formula: E=(1−α/β)·100 • α corresponds to the fungal infection of the treated plants in % and • β corresponds to the fungal infection of the untreated (control) plants in %
An efficacy of 0 means that the infection level of the treated plants corresponds to that of the untreated control plants; an efficacy of 100 means that the treated plants were not infected.
The expected efficacies of mixtures of active compounds were determined using Colby's formula (Colby, S. R. “Calculating synergistic and antagonistic responses of herbicide combinations”, Weeds, 15, 20-22, 1967) and compared with the observed efficacies.
Colby's formula: E=x+y−x·y/100 • E expected efficacy, expressed in % of the untreated control, when using the mixture of the active compounds A and B at the concentrations a and b • x efficacy, expressed in % of the untreated control, when using the active compound A at the concentration a
y efficacy, expressed in % of the untreated control, when using the active compound B at the concentration b

SMILES	Efficacy in % of the untreated control (1.25 ppm active compound in the spray liquor)	Efficacy in % of the untreated control (5 ppm active compound in the spray liquor, infected next day)	Efficacy in % of the untreated control (1 ppm active compound in the spray liquor)	Efficacy in % of the untreated control (6.25 ppm active compound in the spray liquor)
CC1CCN(c2c(-c3c(F)cc(F)cc3F)c(Cl)nc3ncnn23)CC1 [I, 5-chloro-7-(4-methylpiperidin-1-yl)-6-(2,4,6-trifluorophenyl)-[1,2,4]triazolo[1,5-a]pyrimidine]	0%	22%		
CO/N=C(\Cc1cccnc1)c1cc(Cl)cc(Cl)c1 [II (pyrifenox), 1-(3,5-dichlorophenyl)-2-pyridin-3-ylethanone-O-methyloxime]			0%	0%
